Measured values reported in patent US7910622B2, “Modulation of bacterial quorum sensing with synthetic ligands” (Wisconsin Alumni Research Foundation, priority 2007, dated 2011).

Experiments:
Assay in all cases: cell-based
[1] = biological target: T1, TraR (Agrobacterium tumefaciens, UniProt P33905); settings: for A. tumefaciens-TraR Activation [%]: 10 μM ligand; for A. tumefaciens-TraR Inhibition [%]: 10 μM synthetic ligand against 100 nM OOHL
T1 construct: These strains lack their AHL synthase (I) genes, but retain their native R genes; endogenous in cells; host or cells: A. tumefaciens WCF47 (Δ-traI) with PtraI-lacZ plasmid pCF372
Description: A. tumefaciens reporter gene assay protocols. […] An overnight culture of A. tumefaciens WCF47 (pCF372) was diluted to an OD600 of 0.1 in fresh AB minimal medium containing 400 μg/mL octopine and 50 μg/mL streptomycin. A 200 μL-portion of the diluted culture was added to each well of the multititer plate containing AHLs. Plates were grown at 28° C. for 18-20 h in a rotary shaking incubator (200 rpm). The cultures were then assayed for β-galactosidase activity following the Miller assay method. Briefly, 200 μL aliquots of bacteria from each of the wells were added to wells of a polystyrene 96-well plate and the OD600 of each well was recorded. Next, 50 μL aliquots from each well were transferred to a solvent resistant 96-well plate containing 200 μL Z buffer, 8 μL CHCl3 and 4 μL 0.1% aq. sodium dodecylsulfate (SDS). This suspension was mixed via repetitive pipetting, after which the CHCl3 was allowed to settle. A 100-μL aliquot from each well was transferred to a fresh polystyrene 96-well plate, and 20 μL of substrate, o-nitrophenyl-β-D-galactopyranoside (ONPG, 4 μg/mL in phosphate buffer), was added at time zero. After the development of appropriate yellow color (ca. 15-35 min), the reaction was terminated by the addition of 50 μL of 1 M Na2CO3. Absorbance at 420 nm and 550 nm was measured for each well using a plate reader, and Miller units were calculated according to standard methods.
(§1) Dose response reporter gene assays. […] IC50 and EC50 values were calculated using GraphPad Prism software (v. 4.0) using a sigmoidal curve fit.
A. tumefaciens reporter gene assay protocols. […] An overnight culture of A. tumefaciens WCF47 (pCF372) was diluted 1:10 with fresh AB minimal medium containing 400 μg/mL octopine and 50 μg/mL streptomycin. A 200 μL portion of the diluted culture was added to each well of the multititer plate containing AHLs. Plates were incubated at 28° C. for 18-24 h. The cultures were then assayed for β-galactosidase activity following the Miller assay method. Briefly, 200 μL aliquots of bacteria from each of the wells were added to wells of a 96-well multititer plate, and the OD600 of each well was recorded. Next, 50 μL aliquots from each well were transferred to a solvent resistant 96-well multititer plate containing 200 μL Z buffer, 8 μL CHCl3 and 4 μL 0.1% aq. SDS. This suspension was mixed via repetitive pipetting, after which the CHCl3 was allowed to settle. A 100 μL aliquot from each well was transferred to a fresh 96-well multititer plate, and 20 μL of substrate, o-nitrophenyl-β-D-galactopyranoside (ONPG, 4 μg/mL in phosphate buffer), was added at time zero. After the development of appropriate yellow color (ca. 20-30 min), the reaction was terminated by the addition of 50 μL of 1 M Na2CO3. Absorbances at 420 nm and 550 nm were measured for each well using a plate reader, and Miller units were calculated according to standard methods.
as §1

[2] = biological target: T2, LasR (Pseudomonas aeruginosa, UniProt P25084); assay type: cell-based; settings: E. coli DH5α (pJN105L pSC11), normalized to OdDHL; for E. coli-LasR Inhibition [%]: 5 μM synthetic ligand against 7.5 nM OdDHL
T2 construct: expressed in transfected cells; host or cells: E. coli DH5α (pJN105L pSC11), arabinose-induced
Description: (§2) E. coli LasR reporter gene assay protocols. […] An overnight culture of E. coli DH5a (pJN105L pSC11) grown at 37° C. was subculture by diluting 1/10 in fresh LB medium containing 100 μg/mL ampicillin and 15 μg/mL gentamicin and shaking at 37° C. until OD600=0.3. Arabinose (4 mg/mL) was then added to induce the LasR promoter and a 200 μL-portion of this culture was added to each well of the multititer plate containing AHLs. Plates were grown at 37° C. for 2 hours in a rotary shaking incubator (200 rpm; OD600=0.45). The cultures were then assayed for activity following the identical β-galactosidase assay protocols used in the A. tumefaciens reporter gene assays.
as §1
(§3) E. coli LasR reporter gene assay protocols. […] An overnight culture of E. coli DH5α (pJN105L pSC11) was diluted 1:10 with fresh LB medium containing 100 μg/mL ampicillin and 15 μg/mL gentamicin. This sub-culture was incubated at 37° C. until OD600=0.3 (4-6 h). Arabinose (4 mg/mL) was then added to induce the LasR promoter, and a 200 μL portion of this culture was added to each well of the multititer plate containing AHLs. Plates were incubated at 37° C. until OD600=0.45 (4-6 h). The cultures were then assayed for LasR activity following the identical β-galactosidase assay protocols used in the A. tumefaciens reporter gene assays (see above).
as §1

[3] = biological target: T2, LasR; settings: for E. coli-LasR Activation [%]: 5 μM ligand
Description: as §2, §1, §3, §1

[4] = biological target: T3, LuxR (Aliivibrio fischeri, UniProt P35327); assay type: cell-based, Vibrio fischeri; settings: V. fischeri ES114 (Δ-luxI), normalized to OHHL; for V. fischeri-LuxR Inhibition [%]: 5 μM synthetic ligand against 5 μM OHHL
T3 construct: a Δ-luxI derivative of V. fischeri ES114, in which the native lux operon behaves as the bioluminescent reporter; endogenous in cells; host or cells: V. fischeri ES114 (Δ-luxI)
Description: (§4) Luminescence assays. For agonism assays, an appropriate amount of AHL stock solution was added into a 96-well plate. An overnight culture of E. coli or V. fischeri was diluted 1:10 with appropriate media (LB plus 10 μg/mL tetracycline for E. coli; LBS for V. fischeri). A 200-μL portion of the diluted culture was added to each well of the plate. Plates were grown for 4-8 h with shaking (200 rpm; 30° C. for E. coli and RT for V. fischeri). Luminescence was measured using a multilabel plate reader and normalized to cell density. […] All assays were performed in triplicate. Graphpad Prism software was used to calculate IC50 and EC50 values.
(§5) Vibrio fischeri assay procedures. […] An overnight culture of V. fischeri ES114 (WT, Δ-luxI or Δ-luxR) was diluted 1:10 with LBS medium. A-200 μL portion of the diluted culture was added to each well of the plate. Plates were grown at RT with shaking (200 rpm) until the OD600=0.35-0.4 (4-6 h). Luminescence then was measured and normalized to cell density per well. […] All assays were performed in triplicate. IC50 and EC50 values were calculated using GraphPad Prism software using a sigmoidal curve fit.
(§6) V. fischeri reporter gene assay protocols. […] An overnight culture of V. fischeri ES114 (D-luxI) was diluted 1:10 with LBS medium. A 200-μL portion of the diluted culture was added to each well of the multititer plate. Plates were grown at RT with shaking (200 rpm) until the OD600=0.35-0.4 (4-6 h). Luminescence then was measured and normalized to cell density per well.
as §1
(§7) V. fischeri reporter gene assay protocols. […] An overnight culture of V. fischeri ES114 (Δ-luxI) was diluted 1:10 with LBS medium. A200 μL portion of the diluted culture was added to each well of the multititer plate. Plates were incubated at RT until the OD600=0.35-0.4 (4-6 h). Luminescence then was measured and normalized to cell density per well.
as §1

[5] = biological target: T3, LuxR; parameters: species or system Vibrio fischeri; settings: V. fischeri ES114 (Δ-luxI), normalized to OHHL; for V. fischeri-LuxR Activation [%]: 200 μM ligand
Description: as §4, §5, §6, §1, §7, §1

[6] = A. tumefaciens WCF47 (pCF372), normalized to OOHL
[7] = E. coli DH5α (pJN105L pSC11), normalized to OdDHL

T1 sequence (P33905 whole entry): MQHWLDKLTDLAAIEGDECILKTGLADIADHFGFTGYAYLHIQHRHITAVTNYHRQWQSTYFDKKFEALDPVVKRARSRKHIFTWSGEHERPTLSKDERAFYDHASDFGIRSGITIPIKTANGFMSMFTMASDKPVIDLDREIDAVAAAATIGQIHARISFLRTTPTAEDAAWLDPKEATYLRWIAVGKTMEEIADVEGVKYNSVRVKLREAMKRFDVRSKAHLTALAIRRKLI
T2 sequence (P25084 whole entry): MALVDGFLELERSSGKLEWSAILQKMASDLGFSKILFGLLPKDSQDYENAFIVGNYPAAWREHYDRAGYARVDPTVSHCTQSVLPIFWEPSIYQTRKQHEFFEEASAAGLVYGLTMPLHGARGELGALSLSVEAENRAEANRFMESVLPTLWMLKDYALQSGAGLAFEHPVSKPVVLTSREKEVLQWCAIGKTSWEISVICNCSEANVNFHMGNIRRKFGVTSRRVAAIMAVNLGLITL
T3 sequence (P35327 whole entry): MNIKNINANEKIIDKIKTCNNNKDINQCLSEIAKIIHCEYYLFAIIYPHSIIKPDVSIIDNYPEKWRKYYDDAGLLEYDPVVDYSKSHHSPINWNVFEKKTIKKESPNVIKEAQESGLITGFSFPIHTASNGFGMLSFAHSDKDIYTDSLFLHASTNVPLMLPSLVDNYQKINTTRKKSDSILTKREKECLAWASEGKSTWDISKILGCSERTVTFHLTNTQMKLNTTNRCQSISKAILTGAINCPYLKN

| Compound | A. tumefaciens-TraR Activation [%] [1, 6] | A. tumefaciens-TraR Inhibition [%] [1, 6] | E. coli-LasR Inhibition [%] [2] | E. coli-LasR Activation [%] [3, 7] | V. fischeri-LuxR Inhibition [%] [4] | V. fischeri-LuxR Activation [%] [5] | EC50 ([3]; read-out: LasR EC50) | IC50 [1] | activation at 10 µM ([1]; read-out: A. tumefaciens-TraR Activation [%]) | inhibition at 10 µM ([1]; read-out: A. tumefaciens-TraR Inhibition [%], 10 μM synthetic ligand against 100 nM OOHL, A. tumefaciens WCF47 (pCF372), normalized to OOHL) | inhibition at 5 µM ([2]; read-out: E. coli-LasR Inhibition [%], 5 μM synthetic ligand against 7.5 nM OdDHL) | activation at 5 µM ([3]; read-out: E. coli-LasR Activation [%], 5 μM ligand, E. coli DH5α (pJN105L pSC11), normalized to OdDHL) | inhibition at 5 µM ([4]; read-out: V. fischeri-LuxR Inhibition [%], 5 μM synthetic ligand against 5 μM OHHL) | activation at 200 µM ([5]; read-out: V. fischeri-LuxR Activation [%], 200 μM ligand) |
| --- | --- | --- | --- | --- | --- | --- | --- | --- | --- | --- | --- | --- | --- | --- |
| CCOC(=O)/C=C/C(=O)N[C@H]1CCOC1=O [A20] | 0% | 3% | 13% | 0% | 37% | 1% | – | – | – | – | – | – | – | – |
| CC(C)(C)OC(=O)NCc1ccc(C(=O)N[C@H]2CCOC2=O)cc1 [A21] | 0% | 13% | 12% | 0% | 35% | 1% | – | – | – | – | – | – | – | – |
| CC(C)(C)OC(=O)NCCCCC(=O)N[C@H]1CCOC1=O [A22] | 0% | 10% | 15% | 3% | 47% | 2% | – | – | – | – | – | – | – | – |
| C=CCCC(=O)N[C@H]1CCOC1=O [A23] | 0% | 5% | 12% | 0% | 18% | 2% | – | – | – | – | – | – | – | – |
| O=C(CCCc1c[nH]c2ccccc12)N[C@@H]1CCOC1=O [A29] | 0% | 9% | 13% | 0% | 29% | 2% | – | – | – | – | – | – | – | – |
| O=C(CC(=O)N[C@@H]1CCOC1=O)Cc1ccccc1 [B2] | 2% | 50% | −7% | 84% | 46% | 3% | 0.54 µM | – | – | – | – | – | – | – |
| O=C(CC1CCCC1)N[C@H]1CCOC1=O [B12] | 0% | 11% | 19% | 0% | 57% | 3% | – | – | – | – | – | – | – | – |
| O=C(Cc1ccccc1I)N[C@H]1CCOC1=O [B15] | 0% | 5% | 17% | 0% | 63% | 7% | – | – | – | – | – | – | – | – |
| O=C(Cc1ccc([N+](=O)[O-])cc1)NC1CCOC1=O (centres unmarked) [B16, 4-nitro PHL] | – | – | – | – | – | – | – | 2.25 µM | 1% | ~90% | 27% | 0% | 47% | ~25% |
| O=C(Cc1ccccc1[N+](=O)[O-])N[C@H]1CCOC1=O [B18] | 0% | 1% | 17% | 0% | 23% | 4% | – | – | – | – | – | – | – | – |
| O=C(Cc1c(F)c(F)c(F)c(F)c1F)N[C@H]1CCOC1=O [B19, pentafluoroaromatic PHL] | 0% | 2% | 19% | 2% | 40% | 2% | – | – | – | – | – | – | – | – |
